Paper PMC6897958, “Structural basis of ligand selectivity and disease mutations in cysteinyl leukotriene receptors” (Nature Communications, 2019)

Experiments:
CysLT1R [1] = test: IC50 toward CysLT1R of the benzoxazine SAR series, quoted from the literature; conditions: CysLT1R over CysLT2R; SAR series of ref [30]
CysLT2R = conditions: Supplementary Table 3 ref ref.2; cited from earlier work
CysLT1R [2] = conditions: Supplementary Table 3 ref ref.2; cited from earlier work
CysLT2R K194 ^ECL2N = molecular target: T1, CysLT2R K194 ^ECL2N (Homo sapiens, UniProt Q9NS75, K194N); test: IP1 production assay, HEK293 transfected with CysLT2R mutant; type: cell-based
T1 construct: expressed in transfected cells; host or cells: HEK293 (ATCC CRL-1573)
T1 sequence (Q9NS75 whole entry K194N): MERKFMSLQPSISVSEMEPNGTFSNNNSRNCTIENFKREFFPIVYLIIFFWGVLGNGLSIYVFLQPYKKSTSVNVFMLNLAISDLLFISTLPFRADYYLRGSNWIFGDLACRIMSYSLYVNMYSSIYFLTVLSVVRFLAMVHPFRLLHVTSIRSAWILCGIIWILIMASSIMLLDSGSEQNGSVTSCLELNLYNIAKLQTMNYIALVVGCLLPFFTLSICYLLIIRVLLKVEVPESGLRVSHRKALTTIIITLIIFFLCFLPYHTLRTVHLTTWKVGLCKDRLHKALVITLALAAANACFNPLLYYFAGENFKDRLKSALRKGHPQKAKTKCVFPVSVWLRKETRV
Excerpt: (§1) For CysLT2R functional assays, the initial CysLT2R wild-type gene with an N-terminal 3 × HA tag cloned into pcDNA3.1+ (Invitrogen) at EcoRI(5′) and XhoI(3′) was purchased from cDNA.org. All further gene modifications (point mutations, truncations, or partner protein fusion) were introduced by overlapping PCR. Sequences of all primers used in this work are listed in Supplementary Table 4.
(§2) The Cisbio IP-One kit was used according to the manufacturer’s instructions. HEK293 cells (ATCC CRL-1573) were seeded onto poly-L-Lysine-coated 384-well plates at 20,000 cells per well and transfected with 40 ng of DNA coding for the wild-type CysLT2R or for the CysLT2R mutants using the X-treme-Gene HP (Roche) agent. At 48 h post transfection, the media was removed and the cells were washed with fresh Hank’s Balanced Salt Solution. […] After equilibration for 30 min at 37 °C, the cells were lysed with IP1-D2 and Ab-Crypt reagents in lysis buffer and then incubated for 1 h at RT. […] Data were plotted using the three parameters EC50/IC50 fit in GraphPad Prism 7 (San Diego, CA) and represent the mean ± s.d. of at least two independent experiments performed in quadruplicate.

CysLT2R K194 ^ECL2R = molecular target: T2, CysLT2R K194 ^ECL2R (Homo sapiens, UniProt Q9NS75, K194R); test: as above; type: cell-based
T2 construct: expressed in transfected cells; host or cells: HEK293 (ATCC CRL-1573)
T2 sequence (Q9NS75 whole entry K194R): as the sequence (Q9NS75 whole entry K194N) above, with N194R counted along it
Excerpt: as §1, §2

CysLT2R L129^3.43Q = molecular target: T3, CysLT2R L129^3.43Q (Homo sapiens, UniProt Q9NS75, L129Q); test: as above; type: cell-based; conditions: for remaining activity at 1 µM: HEK293, Log[Antagonist] -6 M, L129Q constitutive activity, source data Supp Figure 6D; for remaining activity at 0.01 µM: HEK293, Log[Antagonist] -8 M; for remaining activity at 0.001 µM: HEK293, Log[Antagonist] -9 M; for reversal of constitutive activity (IP1 production) of L129^3.43Q: antagonist 1 µM
T3 construct: expressed in transfected cells; host or cells: HEK293 (ATCC CRL-1573)
T3 sequence (Q9NS75 1-346 L129Q): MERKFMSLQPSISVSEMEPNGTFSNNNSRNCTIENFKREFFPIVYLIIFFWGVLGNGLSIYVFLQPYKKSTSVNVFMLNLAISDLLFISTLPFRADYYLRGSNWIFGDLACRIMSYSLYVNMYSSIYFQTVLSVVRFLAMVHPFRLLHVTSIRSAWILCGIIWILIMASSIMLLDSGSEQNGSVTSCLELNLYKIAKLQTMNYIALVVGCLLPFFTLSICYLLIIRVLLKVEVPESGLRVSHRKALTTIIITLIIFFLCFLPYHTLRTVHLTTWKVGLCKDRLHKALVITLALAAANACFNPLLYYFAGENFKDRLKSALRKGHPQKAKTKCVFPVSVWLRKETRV
Excerpt: as §1, §2

CysLT2R E310^8.48G = molecular target: T4, CysLT2R E310^8.48G (Homo sapiens, UniProt Q9NS75, E310G); test: as above; type: cell-based
T4 construct: expressed in transfected cells; host or cells: HEK293 (ATCC CRL-1573)
T4 sequence (Q9NS75 whole entry E310G): as the sequence (Q9NS75 whole entry K194N) above, with N194K, E310G counted along it
Excerpt: as §1, §2

CysLT2R F137^3.51Y = molecular target: T5, CysLT2R F137^3.51Y (Homo sapiens, UniProt Q9NS75, F137Y); test: as above; type: cell-based
T5 construct: expressed in transfected cells; host or cells: HEK293 (ATCC CRL-1573)
T5 sequence (Q9NS75 whole entry F137Y): as the sequence (Q9NS75 whole entry K194N) above, with F137Y, N194K counted along it
Excerpt: as §1, §2

CysLT2R N202^5.39H = molecular target: T6, CysLT2R N202^5.39H (Homo sapiens, UniProt Q9NS75, N202H); test: as above; type: cell-based
T6 construct: expressed in transfected cells; host or cells: HEK293 (ATCC CRL-1573)
T6 sequence (Q9NS75 whole entry N202H): as the sequence (Q9NS75 whole entry K194N) above, with N194K, N202H counted along it
Excerpt: as §1, §2

CysLT2R I126^3.40V = molecular target: T7, CysLT2R I126^3.40V (Homo sapiens, UniProt Q9NS75, I126V); test: as above; type: cell-based
T7 construct: expressed in transfected cells; host or cells: HEK293 (ATCC CRL-1573)
T7 sequence (Q9NS75 whole entry I126V): as the sequence (Q9NS75 whole entry K194N) above, with I126V, N194K counted along it
Excerpt: as §1, §2

CysLT2R Y127^3.41W = molecular target: T8, CysLT2R Y127^3.41W (Homo sapiens, UniProt Q9NS75, Y127W); test: as above; type: cell-based
T8 construct: expressed in transfected cells; host or cells: HEK293 (ATCC CRL-1573)
T8 sequence (Q9NS75 whole entry Y127W): as the sequence (Q9NS75 whole entry K194N) above, with Y127W, N194K counted along it
Excerpt: as §1, §2

CysLT2R E310^8.48A = molecular target: T9, CysLT2R E310^8.48A (Homo sapiens, UniProt Q9NS75, E310A); test: as above; type: cell-based
T9 construct: expressed in transfected cells; host or cells: HEK293 (ATCC CRL-1573)
T9 sequence (Q9NS75 whole entry E310A): as the sequence (Q9NS75 whole entry K194N) above, with N194K, E310A counted along it
Excerpt: as §1, §2

CysLT2R S169^4.56A = molecular target: T10, CysLT2R S169^4.56A (Homo sapiens, UniProt Q9NS75, S169A); test: as above; type: cell-based
T10 construct: expressed in transfected cells; host or cells: HEK293 (ATCC CRL-1573)
T10 sequence (Q9NS75 whole entry S169A): as the sequence (Q9NS75 whole entry K194N) above, with S169A, N194K counted along it
Excerpt: as §1, §2

CysLT2R V135^3.49D = molecular target: T11, CysLT2R V135^3.49D (Homo sapiens, UniProt Q9NS75, V135D); test: as above; type: cell-based
T11 construct: expressed in transfected cells; host or cells: HEK293 (ATCC CRL-1573)
T11 sequence (Q9NS75 whole entry V135D): as the sequence (Q9NS75 whole entry K194N) above, with V135D, N194K counted along it
Excerpt: as §1, §2

CysLT2R W51^1.45V = molecular target: T12, CysLT2R W51^1.45V (Homo sapiens, UniProt Q9NS75, W51V); test: as above; type: cell-based
T12 construct: expressed in transfected cells; host or cells: HEK293 (ATCC CRL-1573)
T12 sequence (Q9NS75 whole entry W51V): as the sequence (Q9NS75 whole entry K194N) above, with W51V, N194K counted along it
Excerpt: as §1, §2

CysLT2R H284^7.32Q = molecular target: T13, CysLT2R H284^7.32Q (Homo sapiens, UniProt Q9NS75, H284Q); test: as above; type: cell-based
T13 construct: expressed in transfected cells; host or cells: HEK293 (ATCC CRL-1573)
T13 sequence (Q9NS75 whole entry H284Q): as the sequence (Q9NS75 whole entry K194N) above, with N194K, H284Q counted along it
Excerpt: as §1, §2

CysLT2R F260^6.48W = molecular target: T14, CysLT2R F260^6.48W (Homo sapiens, UniProt Q9NS75, F260W); test: as above; type: cell-based
T14 construct: expressed in transfected cells; host or cells: HEK293 (ATCC CRL-1573)
T14 sequence (Q9NS75 whole entry F260W): as the sequence (Q9NS75 whole entry K194N) above, with N194K, F260W counted along it
Excerpt: as §1, §2

CysLT2R K37^1.31R = molecular target: T15, CysLT2R K37^1.31R (Homo sapiens, UniProt Q9NS75, K37R); test: as above; type: cell-based
T15 construct: expressed in transfected cells; host or cells: HEK293 (ATCC CRL-1573)
T15 sequence (Q9NS75 whole entry K37R): as the sequence (Q9NS75 whole entry K194N) above, with K37R, N194K counted along it
Excerpt: as §1, §2

CysLT2R N301^7.49D = molecular target: T16, CysLT2R N301^7.49D (Homo sapiens, UniProt Q9NS75, N301D); test: as above; type: cell-based
T16 construct: expressed in transfected cells; host or cells: HEK293 (ATCC CRL-1573)
T16 sequence (Q9NS75 whole entry N301D): as the sequence (Q9NS75 whole entry K194N) above, with N194K, N301D counted along it
Excerpt: as §1, §2

CysLT2R M201^5.38V = molecular target: T17, CysLT2R M201^5.38V (Homo sapiens, UniProt Q9NS75, M201V); test: as above; type: cell-based
T17 construct: expressed in transfected cells; host or cells: HEK293 (ATCC CRL-1573)
T17 sequence (Q9NS75 whole entry M201V): as the sequence (Q9NS75 whole entry K194N) above, with N194K, M201V counted along it
Excerpt: as §1, §2

CysLT2R R267^6.55K = molecular target: T18, CysLT2R R267^6.55K (Homo sapiens, UniProt Q9NS75, R267K); test: as above; type: cell-based
T18 construct: expressed in transfected cells; host or cells: HEK293 (ATCC CRL-1573)
T18 sequence (Q9NS75 whole entry R267K): as the sequence (Q9NS75 whole entry K194N) above, with N194K, R267K counted along it
Excerpt: as §1, §2

CysLT2R Y119^3.33F = molecular target: T19, CysLT2R Y119^3.33F (Homo sapiens, UniProt Q9NS75, Y119F); test: as above; type: cell-based
T19 construct: expressed in transfected cells; host or cells: HEK293 (ATCC CRL-1573)
T19 sequence (Q9NS75 whole entry Y119F): as the sequence (Q9NS75 whole entry K194N) above, with Y119F, N194K counted along it
Excerpt: as §1, §2

CysLT2R wild type = molecular target: T20, CysLT2R wild type (Homo sapiens, UniProt Q9NS75); test: IP1 production assay (Cisbio IP-One), HEK293 cells transfected with wild-type CysLT2R; type: cell-based
T20 construct: host or cells: HEK293 (ATCC CRL-1573)
T20 sequence (Q9NS75 whole entry): as the sequence (Q9NS75 whole entry K194N) above, with N194K counted along it
Method: as §1
The Cisbio IP-One kit was used according to the manufacturer’s instructions. […] At 48 h post transfection, the media was removed and the cells were washed with fresh Hank’s Balanced Salt Solution. […] After equilibration for 30 min at 37 °C, the cells were lysed with IP1-D2 and Ab-Crypt reagents in lysis buffer and then incubated for 1 h at RT. […] Data were plotted using the three parameters EC50/IC50 fit in GraphPad Prism 7 (San Diego, CA) and represent the mean ± s.d. of at least two independent experiments performed in quadruplicate.

[3] = read-out: IP1 production (normalized), single replicate values
[4] = L129Q, Supp Figure 6D, read-out: IP1 production (normalized), single replicate values

## O=C(O)CCC(=O)N1C[C@@H](C(=O)O)Oc2c(NC(=O)c3ccc(OCCCCc4ccccc4)cc3)cccc21 [cpd 13e]
CysLT1R [1]
  selectivity for CysLT1R: 1,800 fold
CysLT2R
  IC50: 1800 nM
CysLT1R [2]
  IC50: < 1 nM

## O=C(O)CCCN1CC(C(=O)O)Oc2c(NC(=O)c3ccc(OCCCCOc4cccc(F)c4F)cc3F)cccc21 (centres unmarked) [cpd 11c]
CysLT2R K194 ^ECL2N
  IC50: 32 ± 10 nM
CysLT2R K194 ^ECL2R
  IC50: 40 ± 20 nM
CysLT2R L129^3.43Q; [3]
  remaining activity at 1 µM: 80.7%
CysLT2R L129^3.43Q; HEK293, Log[Antagonist] -7 M, L129Q, Supp Figure 6D, read-out: IP1 production (normalized), single replicate values
  remaining activity at 0.1 µM: 85.9%
CysLT2R L129^3.43Q; [4]
  remaining activity at 0.01 µM: 83.3%
  remaining activity at 0.001 µM: 87.9%
CysLT2R L129^3.43Q; HEK293, Log[Antagonist] -10 M, L129Q, Supp Figure 6D, read-out: IP1 production (normalized), single replicate values
  remaining activity at 0.0001 µM: 72.7%
CysLT2R L129^3.43Q; HEK293, Log[Antagonist] -11 M, L129Q, Supp Figure 6D, read-out: IP1 production (normalized), single replicate values
  remaining activity at 10 pM: 64.1%
CysLT2R L129^3.43Q; HEK293, Log[Antagonist] -12 M, L129Q, Supp Figure 6D, read-out: IP1 production (normalized), single replicate values
  remaining activity at 1 pM: 68%
CysLT2R L129^3.43Q
  reversal of constitutive activity (IP1 production) of L129^3.43Q: not reversed
CysLT2R E310^8.48G
  IC50: 7 ± 6 nM
CysLT2R F137^3.51Y
  IC50: 70 ± 20 nM
CysLT2R N202^5.39H
  IC50: 60 ± 30 nM
CysLT2R I126^3.40V
  IC50: 14 ± 5 nM
CysLT2R Y127^3.41W
  IC50: 44 ± 10 nM
CysLT2R E310^8.48A
  IC50: 18 ± 5 nM
CysLT2R S169^4.56A
  IC50: 16 ± 10 nM
CysLT2R V135^3.49D
  IC50: 40 ± 30 nM
CysLT2R W51^1.45V
  IC50: 160 ± 30 nM
CysLT2R H284^7.32Q
  IC50: 270 ± 200 nM
CysLT2R F260^6.48W
  IC50: 330 ± 100 nM
CysLT2R K37^1.31R
  IC50: 280 ± 100 nM
CysLT2R N301^7.49D
  IC50: 110 ± 50 nM
CysLT2R M201^5.38V
  IC50: 60 ± 20 nM
CysLT2R R267^6.55K
  IC50: 100 ± 30 nM
CysLT2R Y119^3.33F
  IC50: 260 ± 100 nM
CysLT2R wild type
  IC50: 70 ± 20 nM

## O=C(O)CCCN1C[C@@H](C(=O)O)Oc2c(NC(=O)c3ccc(OCCCCc4cc(F)ccc4Cl)cc3)cccc21 [cpd 11a]
CysLT2R K194 ^ECL2N
  IC50: 8 ± 4 nM
CysLT2R K194 ^ECL2R
  IC50: 60 ± 30 nM
CysLT2R L129^3.43Q; [3]
  remaining activity at 1 µM: 76.2%
CysLT2R L129^3.43Q; [4]
  remaining activity at 0.01 µM: 78.3%
  remaining activity at 0.001 µM: 74.4%
CysLT2R L129^3.43Q
  reversal of constitutive activity (IP1 production) of L129^3.43Q: not reversed
CysLT2R E310^8.48G
  IC50: 2 ± 1 nM
CysLT2R F137^3.51Y
  IC50: 15 ± 5 nM
CysLT2R N202^5.39H
  IC50: 290 ± 100 nM
CysLT2R I126^3.40V
  IC50: 20 ± 10 nM
CysLT2R Y127^3.41W
  IC50: 500 ± 400 nM
CysLT2R E310^8.48A
  IC50: 8 ± 3 nM
CysLT2R S169^4.56A
  IC50: 10 ± 4 nM
CysLT2R V135^3.49D
  IC50: 3 ± 3 nM
CysLT2R W51^1.45V
  IC50: 47 ± 10 nM
CysLT2R H284^7.32Q
  IC50: 230 ± 90 nM
CysLT2R F260^6.48W
  IC50: 40 ± 20 nM
CysLT2R K37^1.31R
  IC50: 80 ± 30 nM
CysLT2R N301^7.49D
  IC50: 170 ± 70 nM
CysLT2R M201^5.38V
  IC50: 30 ± 10 nM
CysLT2R R267^6.55K
  IC50: 22 ± 9 nM
CysLT2R Y119^3.33F
  IC50: 100 ± 40 nM
CysLT2R wild type
  IC50: 14 ± 6 nM
